Test results published in PubChem BioAssay (NCI).
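Cultured in 96-well plates, cells were exposed to test compound for 48 hours across five concentrations. TGI: concentration producing complete growth inhibition.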

Columns and labels:
Assay in all cases: NCI anticancer screen, dose series, 48 h
HT29 colon = system: HT29 colon
SNB-19 CNS = system: SNB-19 CNS
IGROV1 ovarian = system: IGROV1 ovarian
HOP-92 NSCLC = system: HOP-92 NSCLC
PC-3 prostate = system: PC-3 prostate
MDA-N = system: MDA-N
NCI-H226 lung = system: NCI-H226 lung
HCC-2998 colon = system: HCC-2998 colon
SN12C renal = system: SN12C renal
DU-145 prostate = system: DU-145 prostate
CCRF-CEM leukemia = system: CCRF-CEM leukemia

## CC1(CCOCc2ccccc2)NC(=O)NC1=O (centres undefined)
HT29 colon
  TGI: > 100 µM
SNB-19 CNS
  TGI: > 100 µM
IGROV1 ovarian
  TGI: > 100 µM
HOP-92 NSCLC
  TGI: > 100 µM
PC-3 prostate
  TGI: > 100 µM
MDA-N
  TGI: > 100 µM
NCI-H226 lung
  TGI: > 100 µM
HCC-2998 colon
  TGI: > 100 µM
SN12C renal
  TGI: > 100 µM
DU-145 prostate
  TGI: > 100 µM

## CCCCCCOC(=O)/C=C/[C@]1(CO)C/C(=C/CC(C(C)C)C(C)C)C(=O)O1
HT29 colon
  TGI: 20.8 µM
SNB-19 CNS
  TGI: 22.6 µM
IGROV1 ovarian
  TGI: 28.9 µM
HOP-92 NSCLC
  TGI: 25.4 µM
PC-3 prostate
  TGI: 24.4 µM
MDA-N
  TGI: 5.35 µM
NCI-H226 lung
  TGI: 16.7 µM
HCC-2998 colon
  TGI: 6.18 µM
DU-145 prostate
  TGI: 37 µM

## CN1CCN(C(=S)N2CCN(C)CC2)CC1
HT29 colon
  TGI: 5.86 µM
SNB-19 CNS
  TGI: > 100 µM
IGROV1 ovarian
  TGI: > 100 µM
HOP-92 NSCLC
  TGI: > 100 µM
PC-3 prostate
  TGI: > 100 µM
MDA-N
  TGI: > 100 µM
NCI-H226 lung
  TGI: > 100 µM
HCC-2998 colon
  TGI: > 100 µM
SN12C renal
  TGI: > 100 µM
DU-145 prostate
  TGI: > 100 µM

## COc1ccc(S(=O)(=O)c2nnc(S(=O)(=O)Cc3ccccc3)s2)cc1
HT29 colon
  TGI: 43.8 µM
SNB-19 CNS
  TGI: 36.8 µM
PC-3 prostate
  TGI: 47.7 µM
SN12C renal
  TGI: 52.9 µM
DU-145 prostate
  TGI: 33 µM

## CC12CC(c3ccccc3O1)C(C(=O)Nc1ccc(Cl)cc1Cl)C(=O)N2 (centres undefined)
HT29 colon
  TGI: > 100 µM
SNB-19 CNS
  TGI: > 100 µM
IGROV1 ovarian
  TGI: 50.9 µM
PC-3 prostate
  TGI: > 100 µM
MDA-N
  TGI: > 100 µM
CCRF-CEM leukemia
  TGI: 30.1 µM
HCC-2998 colon
  TGI: > 100 µM
DU-145 prostate
  TGI: > 100 µM

## Cn1ccc(C(=O)NCCN(CCNC(=O)c2ccn(C)c(=O)c2O)CCNC(=O)c2cccc(=O)n2O)c(O)c1=O
HT29 colon
  TGI: > 100 µM
SNB-19 CNS
  TGI: > 100 µM
IGROV1 ovarian
  TGI: > 100 µM
HOP-92 NSCLC
  TGI: > 100 µM
PC-3 prostate
  TGI: > 100 µM
NCI-H226 lung
  TGI: > 100 µM
CCRF-CEM leukemia
  TGI: > 100 µM
HCC-2998 colon
  TGI: > 100 µM
SN12C renal
  TGI: > 100 µM
DU-145 prostate
  TGI: > 100 µM

## COc1ccc(-[n+]2nc(S(=O)(=O)O)c(/C=C/c3ccc(N(C)C)cc3)cc2C#N)cc1
HT29 colon
  TGI: > 100 µM
SNB-19 CNS
  TGI: > 100 µM
IGROV1 ovarian
  TGI: > 100 µM
HOP-92 NSCLC
  TGI: > 100 µM
PC-3 prostate
  TGI: > 100 µM
NCI-H226 lung
  TGI: > 100 µM
CCRF-CEM leukemia
  TGI: > 100 µM
HCC-2998 colon
  TGI: > 100 µM
SN12C renal
  TGI: > 100 µM
DU-145 prostate
  TGI: > 100 µM

## CSc1nc(Nc2cccc(C(F)(F)F)c2)c2c(N)nn(C)c2n1
HT29 colon
  TGI: > 100 µM
SNB-19 CNS
  TGI: > 100 µM
IGROV1 ovarian
  TGI: > 100 µM
PC-3 prostate
  TGI: > 100 µM
MDA-N
  TGI: > 100 µM
NCI-H226 lung
  TGI: > 100 µM
CCRF-CEM leukemia
  TGI: > 100 µM
HCC-2998 colon
  TGI: > 100 µM
SN12C renal
  TGI: > 100 µM
DU-145 prostate
  TGI: > 100 µM

## Nc1ncnc2c1ncn2[C@@H]1C[C@@H]1CO
HT29 colon
  TGI: > 100 µM
SNB-19 CNS
  TGI: > 100 µM
PC-3 prostate
  TGI: > 100 µM
MDA-N
  TGI: > 100 µM
NCI-H226 lung
  TGI: > 100 µM
CCRF-CEM leukemia
  TGI: > 100 µM
HCC-2998 colon
  TGI: > 100 µM
SN12C renal
  TGI: > 100 µM

## COC(=O)C1=C(O)C(C(=O)OC)[C@]2(O)[C@H](C(=O)OC)[C@H]1C[C@@H](c1ccc(C(F)(F)F)cc1)[C@H]2C(=O)OC (some centres undefined)
HT29 colon
  TGI: 25.1 µM
SNB-19 CNS
  TGI: 68.9 µM
IGROV1 ovarian
  TGI: 29 µM
HOP-92 NSCLC
  TGI: 34 µM
PC-3 prostate
  TGI: 94.6 µM
MDA-N
  TGI: 17.2 µM
NCI-H226 lung
  TGI: 7.36 µM
HCC-2998 colon
  TGI: 14.7 µM
SN12C renal
  TGI: 27.6 µM
DU-145 prostate
  TGI: 28.1 µM

## Nc1nc(SC/C=C/c2ccccc2)c2[nH]cnc2n1
HT29 colon
  TGI: > 100 µM
SNB-19 CNS
  TGI: > 100 µM
IGROV1 ovarian
  TGI: > 100 µM
PC-3 prostate
  TGI: > 100 µM
MDA-N
  TGI: > 100 µM
NCI-H226 lung
  TGI: > 100 µM
CCRF-CEM leukemia
  TGI: > 100 µM
HCC-2998 colon
  TGI: > 100 µM
SN12C renal
  TGI: > 100 µM
DU-145 prostate
  TGI: > 100 µM

## CCOC(=O)c1nnc2c(C(=O)OCC)c3ccccc3n2c1N
HT29 colon
  TGI: > 100 µM
SNB-19 CNS
  TGI: > 100 µM
IGROV1 ovarian
  TGI: 38.2 µM
PC-3 prostate
  TGI: > 100 µM
MDA-N
  TGI: > 100 µM
HCC-2998 colon
  TGI: > 100 µM
SN12C renal
  TGI: 81.6 µM
DU-145 prostate
  TGI: > 100 µM

## Cn1c(=O)n(C2(C)C[Se]C2)c2ccccc21
HT29 colon
  TGI: > 100 µM
SNB-19 CNS
  TGI: > 100 µM
IGROV1 ovarian
  TGI: > 100 µM
HOP-92 NSCLC
  TGI: > 100 µM
NCI-H226 lung
  TGI: > 100 µM
CCRF-CEM leukemia
  TGI: > 100 µM
HCC-2998 colon
  TGI: > 100 µM
SN12C renal
  TGI: > 100 µM

## O=C(O)CCC(NC(=O)c1ccc(Nc2nc3cc(C(F)(F)F)ccc3nc2-c2ccccc2)cc1)C(=O)O (centres undefined)
HT29 colon
  TGI: > 69.8 µM
SNB-19 CNS
  TGI: > 100 µM
IGROV1 ovarian
  TGI: > 100 µM
HOP-92 NSCLC
  TGI: > 100 µM
NCI-H226 lung
  TGI: > 100 µM
CCRF-CEM leukemia
  TGI: > 100 µM
HCC-2998 colon
  TGI: > 100 µM
SN12C renal
  TGI: > 100 µM

## COC(=O)/C=C(\C)CC(O)/C=C(\C)CCC=C(C)C (centres undefined)
HT29 colon
  TGI: 59.2 µM
SNB-19 CNS
  TGI: > 100 µM
IGROV1 ovarian
  TGI: > 100 µM
HOP-92 NSCLC
  TGI: > 100 µM
PC-3 prostate
  TGI: > 100 µM
MDA-N
  TGI: > 100 µM
NCI-H226 lung
  TGI: > 100 µM
CCRF-CEM leukemia
  TGI: 94.1 µM
HCC-2998 colon
  TGI: > 100 µM
SN12C renal
  TGI: > 100 µM

## COc1ccc(/C=C2\N=C(SC)N(CN3CCOCC3)C2=O)cc1
HT29 colon
  TGI: > 100 µM
SNB-19 CNS
  TGI: > 100 µM
IGROV1 ovarian
  TGI: > 100 µM
HOP-92 NSCLC
  TGI: 67.4 µM
PC-3 prostate
  TGI: > 100 µM
MDA-N
  TGI: > 100 µM
NCI-H226 lung
  TGI: > 100 µM
CCRF-CEM leukemia
  TGI: > 100 µM
SN12C renal
  TGI: > 100 µM
DU-145 prostate
  TGI: > 100 µM

## CN(CC(=O)O)c1ncc2c(n1)CCCC2
HT29 colon
  TGI: > 100 µM
SNB-19 CNS
  TGI: > 100 µM
IGROV1 ovarian
  TGI: > 100 µM
HOP-92 NSCLC
  TGI: > 100 µM
PC-3 prostate
  TGI: > 100 µM
MDA-N
  TGI: > 100 µM
NCI-H226 lung
  TGI: > 100 µM
CCRF-CEM leukemia
  TGI: > 100 µM
SN12C renal
  TGI: > 100 µM
DU-145 prostate
  TGI: > 100 µM

## O=c1[nH]nc(Cc2ccccc2)n1/N=C/c1ccccc1O
HT29 colon
  TGI: > 100 µM
SNB-19 CNS
  TGI: > 100 µM
IGROV1 ovarian
  TGI: > 100 µM
HOP-92 NSCLC
  TGI: > 100 µM
MDA-N
  TGI: > 100 µM
NCI-H226 lung
  TGI: > 100 µM
CCRF-CEM leukemia
  TGI: > 100 µM
HCC-2998 colon
  TGI: > 100 µM
SN12C renal
  TGI: > 100 µM
DU-145 prostate
  TGI: > 100 µM

## CC(C)C(=O)OCC1OC(n2c(Br)nc3c(=O)[nH]c(N)nc32)C(OC(=O)C(C)C)C1OC(=O)C(C)C (centres undefined)
HT29 colon
  TGI: 40.3 µM
SNB-19 CNS
  TGI: > 100 µM
HOP-92 NSCLC
  TGI: > 100 µM
PC-3 prostate
  TGI: 62.9 µM
MDA-N
  TGI: > 100 µM
NCI-H226 lung
  TGI: > 100 µM
SN12C renal
  TGI: > 100 µM
DU-145 prostate
  TGI: > 100 µM

## CC1CCC(=O)C(C(=O)CC2CC(=O)N(C)C(=O)C2)C1 (centres undefined)
HT29 colon
  TGI: > 100 µM
SNB-19 CNS
  TGI: > 100 µM
IGROV1 ovarian
  TGI: > 100 µM
HOP-92 NSCLC
  TGI: > 100 µM
PC-3 prostate
  TGI: > 100 µM
NCI-H226 lung
  TGI: > 100 µM
CCRF-CEM leukemia
  TGI: > 100 µM
HCC-2998 colon
  TGI: > 100 µM
SN12C renal
  TGI: > 100 µM
DU-145 prostate
  TGI: > 100 µM

## NCc1ccccc1-c1c2nc(c(-c3ccccc3CN)c3ccc([nH]3)c(-c3ccccc3CN)c3nc(c(-c4ccccc4CN)c4ccc1[nH]4)C=C3)C=C2
HT29 colon
  TGI: > 100 µM
SNB-19 CNS
  TGI: 43.5 µM
IGROV1 ovarian
  TGI: 59.4 µM
HOP-92 NSCLC
  TGI: 22.2 µM
NCI-H226 lung
  TGI: 33.4 µM
CCRF-CEM leukemia
  TGI: 27.1 µM
HCC-2998 colon
  TGI: 76.3 µM
SN12C renal
  TGI: 39.8 µM

## Cc1c(N=Nc2ccc(Cl)cc2)c(-c2ccccc2)n(C2OC(CO)C(O)C(O)C2O)c(=S)c1C#N (centres undefined)
HT29 colon
  TGI: 33.7 µM
SNB-19 CNS
  TGI: 25.2 µM
IGROV1 ovarian
  TGI: 29.5 µM
HOP-92 NSCLC
  TGI: 28.8 µM
PC-3 prostate
  TGI: 22.4 µM
MDA-N
  TGI: 35.9 µM
CCRF-CEM leukemia
  TGI: 87.5 µM
SN12C renal
  TGI: 32.5 µM
DU-145 prostate
  TGI: 39.4 µM
